# Measured values published in US10806694B2, “Nanoparticles for photodynamic therapy, X-ray induced photodynamic therapy, radiotherapy, radiodynamic therapy, chemotherapy, immunotherapy, and any combination thereof” (The University of Chicago, priority 2014, dated 2020).
# Key:
# [1] = tested on: human head and neck cancer cells SQ20B; assay: In vitro PDT cytotoxicity (MTS); type: cell-based; details: 5-100 μM ligand, 640 nm LED 100 mW/cm^2, 15 min (90 J/cm^2) or 30 min (180 J/cm^2)
# Experimental: The cytotoxicity of DBP-UiO and H2DBP was evaluated in human head and neck cancer cells SQ20B which are resistant to cisplatin and conventional radiotherapy. SQ20B cells were seeded on 96-well plates at 2000 cells/well. The cells were treated with DBP-UiO and H2DBP at various ligand concentrations (5, 10, 20, 50 and 100 μM base on ligand concentrations) after a 24-h incubation. A further incubation of 4 h was allowed, followed by replacing the culture medium with 100 μL of fresh DMEM/F12 medium. The cells were irradiated with LED light (640 nm) at 100 mW/cm^2 for 15 min (total light dose 90 J/cm^2) or 30 min (total light dose 180 J/cm^2), respectively. The cells without irradiation treatment served as controls. The cells were further incubated to achieve a total incubation time of 72 h with DBP-UiO or H2DBP. The cell viability was detected by (3-(4,5-dimethylthiazol-2-yl)-5-(3-carboxymethoxyphenyl)-2-(4-sulfophenyl)-2H-tetra-zolium) (MTS) assay (Promega, Madison, Wis., United States of America).
# To further confirm the PDT efficacy of DBP-UiO, SQ20B cancer cells were treated with H2DBP or DBP-UiO at various concentrations (5, 10, 20, 50 and 100 μM based on ligand concentrations), the cells were irradiated with LED light (640 nm, 100 mW/cm^2) for 15 min (total light dose 90 J/cm^2) or 30 min (total light dose 180 J/cm^2), respectively.
# [2] = tested on: SQ20B subcutaneous xenograft murine models; assay: In vivo PDT efficacy; set-up: species or system mice; details: 3.5 mg/kg intratumoral, 180 J/cm^2, single treatment
# Experimental: The PDT efficacy of DBP-UiO was investigated using SQ20B subcutaneous xenograft murine models. Tumor bearing mice were established by subcutaneous inoculation of SQ20B cell suspension (5×10^6 cells per mouse) into the right flank region of 6-week athymic female nude mice. Three groups were included for comparison: PBS as control, H2DBP, and DBP-UiO. When tumors reached 100 mm^3, PBS, H2DBP, and DBP-UiO were intratumorally injected to animals at a DBP dose of 3.5 mg/kg. At 12 h post-injection, mice were anesthetized with 2% (v/v) isoflurane and tumors were irradiated with a 640 nm LED for 30 min. The light intensity was measured as 100 mW/cm^2, and the total light dose was 180 J/cm^2. Both injection and PDT were performed once.
# To evaluate the therapeutic efficacy, tumor growth and body weight evolution were monitored. The tumor size was measured with a digital caliper every day. Tumor volumes were calculated as follows: (width^2×length)/2. Finally, all mice were sacrificed on Day 8, and the excised tumors were photographed and weighed. Tumors were fixed with formalin. Paraffin-embedded 5 μm tumor sections were stained with hematoxylin and erosin (H&E) and observed with light microscopy (Pannoramic Scan Whole Slide Scanner, Perkin Elmer, Waltham, Mass., United States of America).
# In vivo experiments on SQ20B subcutaneous xenograft murine models were carried out. […]
# [3] = tested on: subcutaneous flank tumor mouse model of CT26; assay: In vivo PDT anticancer efficacy; set-up: species or system mice; details: ligand dose 1 mg/kg intratumoral, 90 J/cm^2, two treatments
# Experimental: (§1) In vivo anticancer efficacy experiments on subcutaneous flank tumor mouse models of CT26 and HT29 were performed. The mice were intratumorally injected with (1) PBS control, (2) DBC-UiO, (3) DBP-UiO, (4) H2DBC, or (5) H2DBP at a ligand dose of 1 mg/kg or (6) DBC-UiO at a ligand dose of 3.5 mg/kg. Twelve hours post injection, each mouse in group (1)-(5) was irradiated at the tumor site with light (0.1 W/cm^2) for 15 min (90 J/cm^2) and the mice in group (6) received light irradiation (0.1 W/cm^2) for 30 min (180 J/cm^2). For (1) to (5) groups on the CT26 model, mice are treated again 4 days after first treatment, while for (1) to (5) groups on HT29 model, mice are treated every 4 days for total 4 treatments.
# [4] = tested on: subcutaneous flank tumor mouse model of HT29; assay: In vivo PDT anticancer efficacy; set-up: species or system mice; details: ligand dose 1 mg/kg intratumoral, 90 J/cm^2, four treatments
# Experimental: as §1
# [5] = tested on: CT26 cells; assay: Apoptosis after PDT, Annexin V/dead cell kit, flow cytometry; type: cell-based, murine; details: 5 μM
# Experimental: (§2) CT26 cells were incubated with 5 μM DBC-UiO or H2DBC followed by light irradiation at 0.1 W/cm^2 for 15 min (90 J/cm^2). The apoptosis induced by PDT treatment was determined with the Alexa Fluor 488 Annexin V/dead cell apoptosis kit by flow cytometry. […] Calreticulin (CRT) is a distinct biomarker exposed on the surface of cells undergoing ICD. The CRT expression was determined by flow cytometry and immunofluorescence to assess the ICD induced by DBC-UiO induced PDT. CT26 cells were treated with 5 μM DBC-UiO or H2DBC followed by light irradiation at 0.1 W/cm^2 for 15 min (90 J/cm^2). For flow cytometry analysis, cells were collected and stained with Alexa Fluor 488-CRT antibody and propidium iodide (PI). The fluorescence intensity of stained cells was gated on PI-negative cells. For immunostaining analysis, the cells were stained with AlexaFluor 488-CRT conjugated antibody and DAPI nuclei stain, and observed using confocal laser scanning microscopy (CLSM).
# [6] = tested on: CT26 cells; assay: Calreticulin (CRT) surface expression after PDT (immunogenic cell death); type: cell-based, murine; details: 5 μM
# Experimental: as §2
compound,measurement,setting,value
"O=C(O)c1ccc(-c2c3nc(cc4ccc([nH]4)c(-c4ccc(C(=O)O)cc4)c4nc(cc5ccc2[nH]5)C=C4)C=C3)cc1 [H2DBP, 5,15-di(p-benzoato)porphyrin]",PDT efficacy (cell viability),[1],moderate PDT efficacy only at 20 μM dose with 30 min light irradiation
same,tumor growth,[2],"slightly suppressed after PDT, however accelerated after 5 days and exhibited no difference to the control group at the endpoint"
same,tumor growth,[3],failed to suppress the tumor growth
same,tumor growth,[4],failed to suppress the tumor growth
"5, 15-di(p-benzoato)chlorin [H2DBC]",apoptosis or necrosis,[5]; in the dark,No apoptosis or necrosis was observed
same,apoptosis,[5]; light irradiation 90 J/cm^2,significant amounts of cells underwent apoptosis
same,surface CRT expression,[6]; light irradiation 90 J/cm^2,significant amounts of CRT were detected
same,surface CRT expression,[6]; without light irradiation,no surface CRT expression
same,tumor growth,[3],failed to suppress the tumor growth
same,tumor growth,[4],failed to suppress the tumor growth
